Reference: US20040209897A1 (Pharmacia Corporation, priority 2002, published 2004)
pIC50: −log10 of the molar value. Where a name gives a salt, the structure may show the parent alone.

Target: Recombinant MAPKAPK2 (MK-2) (Homo sapiens, UniProt P49137)
Test: Determination of MK-2 IC50 (HSP-peptide phosphorylation, anion exchange resin capture assay)
Format: biochemical
[1] = MAPKAP2 Avg. IC50, MK-2 inhibiting activity, Table I

Sequence of Recombinant MAPKAPK2 (MK-2) (P49137 whole entry, species assumed): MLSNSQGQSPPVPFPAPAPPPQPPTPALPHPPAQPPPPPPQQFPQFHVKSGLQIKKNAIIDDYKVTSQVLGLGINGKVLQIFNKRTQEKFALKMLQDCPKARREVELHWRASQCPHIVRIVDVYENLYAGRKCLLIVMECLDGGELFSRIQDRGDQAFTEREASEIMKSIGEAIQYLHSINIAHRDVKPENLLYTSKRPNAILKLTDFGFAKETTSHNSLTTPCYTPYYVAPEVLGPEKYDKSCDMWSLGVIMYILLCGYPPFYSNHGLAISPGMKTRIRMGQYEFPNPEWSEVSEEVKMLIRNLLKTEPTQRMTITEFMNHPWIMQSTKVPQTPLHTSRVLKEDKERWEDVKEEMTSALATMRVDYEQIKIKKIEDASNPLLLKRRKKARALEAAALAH
Method: The phosphorylation of HSP-peptide ([sequence]) by MAPKAPK2 was measured using an anion exchange resin capture assay method. […] The reaction was terminated and [γ^33P]ATP was removed from solution by the addition of 150 μl of AG 1×8 ion exchange resin in 900 mM sodium formate pH 3.0. A 50 μl aliquot of head volume was removed from the quenched reaction mixture and added to a 96-well plate, 150 μl of Microscint-40 (Packard) was added and the amount of phosphorylated-peptide was determined.
Compounds are evaluated as potential inhibitors of the MK2 kinase by measuring their effects on MK2 phosphorylation of the peptide substrate. Compounds may be screened initially at two concentrations prior to determination of IC50 values. Screening results are expressed as percent inhibition at the concentrations of compound tested. For IC50 value determinations, compounds are tested at six concentrations in ten-fold serial dilutions with each concentration tested in triplicate. Results are expressed as IC50 values in micromolar. The assay is performed at a final concentration of 2% DMSO.

Structure (SMILES)	pIC50 (MAPKAP2 Avg. IC50)	further results
O=C1NCCc2[nH]c(-c3ccnc(/C=C/c4ccccc4N4CCNCC4)c3)cc21 [Example 667, trifluoroacetate]	6.10	–
O=C1NCCc2[nH]c(-c3ccnc(/C=C/c4ccccc4-c4ccccc4)c3)cc21 [Example 670, trifluoroacetate]	6.09	–
O=C1NCCc2[nH]c(-c3ccnc(/C=C/c4ccccc4N4CCCCC4)c3)cc21 [Example 671, trifluoroacetate]	6.09	–
O=C1NCCc2[nH]c(-c3ccc(O)c(-c4cnc5ccccc5c4)c3)cc21 [Example 676]	6.03	–
O=C1NCCc2[nH]c(-c3ccnc(/C=C/c4ccc(-c5ccccc5)s4)c3)cc21 [Example 683, trifluoroacetate]	5.99	–
O=C1NCCc2[nH]c(-c3ccnc(/C=C\c4ccc(F)c(F)c4)c3)cc21 [Example 687, trifluoroacetate]	5.97	–
O=C1NCCc2[nH]c(-c3ccnc(/C=C/c4ccccc4C4CCCCC4)c3)cc21 [Example 694, trifluoroacetate]	5.94	–
O=C1NCCc2[nH]c(-c3ccnc(/C=C/Cc4ccccc4)c3)cc21 [Example 713, trifluoroacetate]	5.75	–
O=C1NCCc2[nH]c(-c3ccnc(/C=C/c4c(Cl)cccc4N4CCOCC4)c3)cc21 [Example 715, trifluoroacetate]	5.74	–
COCCN(C)c1ccccc1/C=C/c1cc(-c2cc3c([nH]2)CCNC3=O)ccn1 [Example 716, trifluoroacetate]	5.74	–
C=CC(=O)N(CCNC(=O)OC(C)(C)C)c1ccc(-c2cc(-c3cc4c([nH]3)CCNC4=O)ccn2)cn1 [Example 732, trifluoroacetate]	5.63	–
O=C1NCCc2[nH]c(-c3ccnc(/C=C\c4cccnc4)c3)cc21 [Example 747, trifluoroacetate]	5.48	–
O=C1NCCc2[nH]c(-c3ccnc(/C=C\Cc4ccccc4)c3)cc21 [Example 749, trifluoroacetate]	5.43	–
Cn1c(-c2ccnc(-c3cnc4ccccc4c3)c2)cc2c1CCNC2=O [Example 750, 1-methyl-2-(2-quinolin-3-ylpyridin-4-yl)-1,5,6,7-tetrahydro-4H-pyrrolo[3,2-c]pyridin-4-one]	5.38	–
CN(N)c1cc(-c2cc3c([nH]2)CCNC3=O)ccn1 [Example 756, 2-[2-(1-methylhydrazino)pyridin-4-yl]-1,5,6,7-tetrahydro-4H-pyrrolo[3,2-c]pyridin-4-one]	5.31	–
CCN(CC)c1ccccc1/C=C/c1cc(-c2cc3c([nH]2)CCNC3=O)ccn1 [Example 762, trifluoroacetate]	5.24	–
C[C@@H]1CN(c2ccccc2/C=C/c2cc(-c3cc4c([nH]3)CCNC4=O)ccn2)C[C@H](C)O1 [Example 766, 2-[2-((E)-2-{2-[(2R,6S)-2,6-dimethylmorpholin-4-yl]phenyl}vinyl)pyridin-4-yl]-1,5,6,7-tetrahydro-4H-pyrrolo[3,2-c]pyridin-4-one trifluoroacetate]	5.12	–
O=C1NC(c2ccccc2)Cc2[nH]c(-c3ccnc(-c4cccc(F)c4)c3)cc21 (centres unmarked) [Example 767, 2-[2-(3-fluorophenyl)pyridin-4-yl]-6-phenyl-1,5,6,7-tetrahydro-4H-pyrrolo[3,2-c]pyridin-4-one trifluoroacetate]	5.11	–
O=C1NCC(c2ccccc2)c2[nH]c(-c3ccnc(-c4cnc5ccccc5c4)c3)cc21 (centres unmarked) [Example 768, 7-phenyl-2-(2-quinolin-3-ylpyridin-4-yl)-1,5,6,7-tetrahydro-4H-pyrrolo[3,2-c]pyridin-4-one trifluoroacetate]	5.10	–
N/N=C(\c1ccccc1)c1cc(-c2cc3c([nH]2)CCNC3=O)ccn1 [Example 786, 2-{2-[(E)-hydrazono(phenyl)methyl]pyridin-4-yl}-1,5,6,7-tetrahydro-4H-pyrrolo[3,2-c]pyridin-4-one trifluoroacetate]	4.84	–
O=C(NCc1ccccc1)c1cc(-c2cc3c([nH]2)CCNC3=O)ccn1 [Example 787, trifluoroacetate]	4.84	–
O=C1NCCc2[nH]c(-c3cc(F)nc(-c4ccccc4F)c3)cc21 [Example 802, 2-[2-fluoro-6-(2-fluorophenyl)pyridin-4-yl]-1,5,6,7-tetrahydro-4H-pyrrolo[3,2-c]pyridin-4-one trifluoroacetate]	–	pIC50 [1]: 4.70
NCCc1[nH]c(-c2ccnc(NN)c2)cc1C(=O)NN [Example 817, 2-(2-aminoethyl)-5-(2-hydrazinopyridin-4-yl)-1H-pyrrole-3-carbohydrazide]	–	pIC50 [1]: 4.70
C=CC(=O)Nc1cccc(-c2cc(-c3cc4c([nH]3)CCNC4=O)ccn2)c1 [N-[3-[4-(4-oxo-4,5,6,7-tetrahydro-1H-pyrrolo[3,2-c]pyridin-2-yl)pyridin-2-yl]phenyl}acrylamide]	–	kind of MK-2 inhibition (irreversible): irreversible inhibitor

Continued by rising pIC50 (MAPKAP2 Avg. IC50), values first:

pIC50 (MAPKAP2 Avg. IC50)	Structure (SMILES)	further results
6.12	O=C1NCCc2[nH]c(-c3ccnc(-c4cccc(CN5CCCC5)c4)c3)cc21 [Example 660, trifluoroacetate]	–
6.14	CCCCc1cccc(-c2cc(-c3cc4c([nH]3)CCNC4=O)ccn2)c1 [Example 659, trifluoroacetate]	–
6.25	O=C1NCCc2[nH]c(-c3ccnc(/C=C/c4ccc(-c5ccccc5)cc4)c3)cc21 [Example 639, trifluoroacetate]	–
6.29	O=C1NC(C2CC2)Cc2[nH]c(-c3ccnc(-c4cccc(NC(=O)C5CCCC5)c4)c3)cc21 (centres unmarked) [Example 634, trifluoroacetate]	–
6.35	O=C1NCCc2[nH]c(-c3ccnc(-c4cncc5ccccc45)c3)cc21 [Example 627, trifluoroacetate]	–
6.35	O=C1NCCc2[nH]c(-c3ccnc(/C=C\c4cc5ccccc5s4)c3)cc21 [Example 623, trifluoroacetate]	–
6.44	O=C1NCCc2[nH]c(-c3ccnc(/C=C\C=C\c4ccccc4)c3)cc21 [Example 610]	–
6.45	Cc1cc(C)c(/C=C\c2cc(-c3cc4c([nH]3)CCNC4=O)ccn2)cc1C [Example 604, trifluoroacetate]	–
6.46	O=C1NCCc2[nH]c(-c3ccnc(/C=C/c4csc(-c5ccccc5)n4)c3)cc21 [Example 602, trifluoroacetate]	–
6.47	CC(C)c1ccccc1/C=C/c1cc(-c2cc3c([nH]2)CCNC3=O)ccn1 [Example 599, trifluoroacetate]	–
6.50	O=C1NCCc2[nH]c(-c3ccnc(-c4ccc([N+](=O)[O-])cc4)c3)cc21 [Example 587]	–
6.53	C/C(=C\c1cc(-c2cc3c([nH]2)CCNC3=O)ccn1)c1ccccc1 [Example 582, trifluoroacetate]	–
6.53	O=C1NCCc2[nH]c(-c3ccnc(/C=C/c4cccc(Oc5ccccc5)c4)c3)cc21 [Example 581, trifluoroacetate]	–
6.55	Cc1cccc(/C=C/c2cc(-c3cc4c([nH]3)CCNC4=O)ccn2)c1C [Example 577, trifluoroacetate]	–
6.61	O=C1NCCc2[nH]c(-c3ccnc(/C=C/c4c(F)c(F)c(F)c(F)c4F)c3)cc21 [Example 563, trifluoroacetate]	–
6.68	NCc1cccc(-c2cc(-c3cc4c([nH]3)CCNC4=O)ccn2)c1 [Example 551, 2-{2-[3-(aminomethyl)phenyl]pyridin-4-yl}-1,5,6,7-tetrahydro-4H-pyrrolo[3,2-c]pyridin-4-one trifluoroacetate]	–
6.77	O=C1NCCc2[nH]c(-c3ccnc(/C=C/c4ccccc4N4CCOCC4)c3)cc21 [Example 529, 2-{2-[(E)-2-(2-morpholin-4-ylphenyl)vinyl]pyridin-4-yl}-1,5,6,7-tetrahydro-4H-pyrrolo[3,2-c]pyridin-4-one trifluoroacetate]	–
6.82	CC(C)CCN(CCCc1ccc(-c2cc(-c3cc4c([nH]3)CCNC4=O)ccn2)cn1)CCC(C)C [Example 511, 2-(6′-{3-(bis(3-methylbutyl)amino]propyl}-2,3′-bipyridin-4-yl)-1,5,6,7-tetrahydro-4H-pyrrolo[3,2-c]pyridin-4-one trifluoroacetate]	–
6.82	O=C1NCCc2[nH]c(-c3ccnc(/C=C/c4ccc(C(F)(F)F)cc4F)c3)cc21 [Example 510, 2-(2-{(E)-2-[2-fluoro-4-(trifluoromethyl)phenyl]vinyl}pyridin-4-yl)-1,5,6,7-tetrahydro-4H-pyrrolo[3,2-c]pyridin-4-one trifluoroacetate]	–
6.83	O=C1NCCc2[nH]c(-c3cc(-c4ccc(Oc5ccccc5)cc4)ncc3F)cc21 [Example 509, 2-[5-fluoro-2-(4-phenoxyphenyl)pyridin-4-yl]-1,5,6,7-tetrahydro-4H-pyrrolo[3,2-c]pyridin-4-one trifluoroacetate]	–
